ChEMBL document CHEMBL1201862, “PubChem BioAssay data set” (2004)
Activity calls are given as the source filed them.

Assays:
[1] = inhibitors of Vif binding to APOBEC3G peptide, primary screen, biochemical, TR-FRET, GST-Vif 1-94, biotin-A3G peptide, dose response retest (AID 1117319); format: functional;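 further: TR-FRET signal of purified GST-Vif binding a biotinylated A3G peptide; inhibitors lower the FRET signal by blocking Vif and A3G binding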
[2] = target: DNA dC->dU-editing enzyme APOBEC-3G (Homo sapiens, UniProt Q9HC16); test: Dose Response confirmation of small molecule APOBEC3G DNA Deaminase Inhibitors via a fluorescence-based single-stranded DNA deaminase assay. [Related pubchem assays (depositor defined):AID493012, AID493028]; format: functional
DNA dC->dU-editing enzyme APOBEC-3G, sequence (Q9HC16 whole entry): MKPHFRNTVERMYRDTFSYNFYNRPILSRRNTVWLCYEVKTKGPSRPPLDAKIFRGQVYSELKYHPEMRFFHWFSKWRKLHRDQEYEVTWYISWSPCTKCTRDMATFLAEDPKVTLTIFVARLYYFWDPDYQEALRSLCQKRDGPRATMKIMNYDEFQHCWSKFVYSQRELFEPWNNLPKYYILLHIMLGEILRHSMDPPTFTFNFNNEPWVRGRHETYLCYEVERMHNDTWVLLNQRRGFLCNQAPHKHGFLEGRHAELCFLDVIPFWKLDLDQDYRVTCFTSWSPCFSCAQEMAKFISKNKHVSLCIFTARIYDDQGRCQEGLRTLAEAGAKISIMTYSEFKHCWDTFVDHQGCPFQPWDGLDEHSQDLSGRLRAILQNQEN

[3] = target: T1, Mannose-6-phosphate isomerase (Homo sapiens, UniProt P34949); test: human PMI inhibitors, high substrate, primary screen, biochemical, fluorescence intensity, high mannose 6-phosphate (AID 1220)
T1 sequence (P34949 whole entry): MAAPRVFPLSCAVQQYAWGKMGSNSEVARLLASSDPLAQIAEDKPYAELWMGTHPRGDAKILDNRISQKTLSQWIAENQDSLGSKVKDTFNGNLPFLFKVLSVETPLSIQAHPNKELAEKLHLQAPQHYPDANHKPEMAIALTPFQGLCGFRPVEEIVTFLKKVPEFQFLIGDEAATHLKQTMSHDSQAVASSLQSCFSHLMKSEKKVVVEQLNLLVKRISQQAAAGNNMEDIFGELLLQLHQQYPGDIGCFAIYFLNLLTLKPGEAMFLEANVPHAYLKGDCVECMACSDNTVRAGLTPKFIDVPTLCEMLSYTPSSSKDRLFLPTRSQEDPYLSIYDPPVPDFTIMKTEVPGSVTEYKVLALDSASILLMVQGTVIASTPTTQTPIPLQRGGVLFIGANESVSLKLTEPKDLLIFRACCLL

[4] = target: Heat shock protein HSP 90-alpha (Homo sapiens, UniProt P07900); test: Luminescence-based dose response biochemical high throughput screening assay for inhibitors of the Heat Shock Protein 90 (HSP90). [Related pubchem assays: 1831 (Summary AID.), 1846 (Confirmation screen.), 1789 (Primary screen.)]
[5] = target: T2, Corticotropin-releasing factor receptor 2/Corticotropin-releasing factor-binding protein (Homo sapiens, UniProt P24387+Q13324); test: activators of CRF receptor 2 with binding protein – uHTS hits, confirmation (AID 602473); format: functional; settings: read-out: EC50_Mean
T2 sequence (Q13324 whole entry): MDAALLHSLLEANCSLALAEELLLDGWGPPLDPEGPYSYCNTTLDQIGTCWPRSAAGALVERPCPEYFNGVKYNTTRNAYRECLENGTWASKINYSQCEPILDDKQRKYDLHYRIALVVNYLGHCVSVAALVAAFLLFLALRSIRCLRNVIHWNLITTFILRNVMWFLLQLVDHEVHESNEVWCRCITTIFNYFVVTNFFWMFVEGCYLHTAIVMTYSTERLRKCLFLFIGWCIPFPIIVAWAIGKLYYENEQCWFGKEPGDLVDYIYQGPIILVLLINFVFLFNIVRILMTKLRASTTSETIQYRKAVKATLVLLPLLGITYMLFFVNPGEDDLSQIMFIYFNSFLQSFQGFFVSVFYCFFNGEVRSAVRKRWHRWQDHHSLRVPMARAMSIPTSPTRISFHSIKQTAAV
T2 sequence (P24387 whole entry): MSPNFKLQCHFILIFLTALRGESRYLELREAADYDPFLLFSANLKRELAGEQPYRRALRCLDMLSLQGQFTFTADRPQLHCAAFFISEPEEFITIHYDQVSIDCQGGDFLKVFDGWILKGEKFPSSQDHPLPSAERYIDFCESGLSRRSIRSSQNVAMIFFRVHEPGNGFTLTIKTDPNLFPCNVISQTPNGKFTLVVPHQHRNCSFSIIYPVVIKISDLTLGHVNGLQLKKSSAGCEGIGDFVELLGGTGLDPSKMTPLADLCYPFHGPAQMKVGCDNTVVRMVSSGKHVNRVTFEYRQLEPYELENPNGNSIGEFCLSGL

[6] = target: T3, Microphthalmia-associated transcription factor (Homo sapiens, UniProt O75030); test: TRPM1 promoter luciferase signal decrease, dose response, MITF inhibitor project, cell-based, SK-MEL-5, cherry-picked, set 3 (AID 493073); format: functional
T3 sequence (O75030 whole entry): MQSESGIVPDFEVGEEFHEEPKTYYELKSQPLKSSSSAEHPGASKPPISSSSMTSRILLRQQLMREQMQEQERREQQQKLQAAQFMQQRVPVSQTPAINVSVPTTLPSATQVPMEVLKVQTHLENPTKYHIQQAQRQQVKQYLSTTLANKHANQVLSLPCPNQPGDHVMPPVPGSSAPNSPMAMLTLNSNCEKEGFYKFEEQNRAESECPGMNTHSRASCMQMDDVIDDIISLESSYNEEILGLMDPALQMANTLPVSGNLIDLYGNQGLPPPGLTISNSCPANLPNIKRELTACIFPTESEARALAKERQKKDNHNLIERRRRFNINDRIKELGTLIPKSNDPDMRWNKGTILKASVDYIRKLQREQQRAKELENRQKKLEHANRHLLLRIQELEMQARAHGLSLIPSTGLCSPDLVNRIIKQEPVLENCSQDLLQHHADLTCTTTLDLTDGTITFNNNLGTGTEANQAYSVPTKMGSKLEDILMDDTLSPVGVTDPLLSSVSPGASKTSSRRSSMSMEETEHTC

[7] = inhibitors of SNCA 5'UTR-driven reporter translation, confirmation, H4 neuroglioma cells, luminescence (AID 1988); format: functional, cell-based
[8] = Luminescence Cell-Based Dose Response HTS to Identify Inhibitors of 5'UTR Stem-Loop Driven Prion Protein mRNA Translation in H4 Neuroglioblastoma Cells. [Related pubchem assays: 1827 (Project Summary), 1813 (Primary HTS)]; format: functional
[9] = HIV-1 Env-mediated cell fusion inhibitors, dose response, CCR5-tropic Env (AID 2279); format: functional
[10] = inhibitors of firefly luciferase expression or activity, dose response, H4 neuroglioma cells, luminescence (AID 1990); format: functional, cell-based
[11] = target: Voltage-gated inwardly rectifying potassium channel KCNH2 (Homo sapiens, UniProt Q12809); test: hERG protection from proarrhythmic block, potency, dose response, cell-based, thallium flux (AID 2121); format: ADME
Voltage-gated inwardly rectifying potassium channel KCNH2, sequence (Q12809 whole entry): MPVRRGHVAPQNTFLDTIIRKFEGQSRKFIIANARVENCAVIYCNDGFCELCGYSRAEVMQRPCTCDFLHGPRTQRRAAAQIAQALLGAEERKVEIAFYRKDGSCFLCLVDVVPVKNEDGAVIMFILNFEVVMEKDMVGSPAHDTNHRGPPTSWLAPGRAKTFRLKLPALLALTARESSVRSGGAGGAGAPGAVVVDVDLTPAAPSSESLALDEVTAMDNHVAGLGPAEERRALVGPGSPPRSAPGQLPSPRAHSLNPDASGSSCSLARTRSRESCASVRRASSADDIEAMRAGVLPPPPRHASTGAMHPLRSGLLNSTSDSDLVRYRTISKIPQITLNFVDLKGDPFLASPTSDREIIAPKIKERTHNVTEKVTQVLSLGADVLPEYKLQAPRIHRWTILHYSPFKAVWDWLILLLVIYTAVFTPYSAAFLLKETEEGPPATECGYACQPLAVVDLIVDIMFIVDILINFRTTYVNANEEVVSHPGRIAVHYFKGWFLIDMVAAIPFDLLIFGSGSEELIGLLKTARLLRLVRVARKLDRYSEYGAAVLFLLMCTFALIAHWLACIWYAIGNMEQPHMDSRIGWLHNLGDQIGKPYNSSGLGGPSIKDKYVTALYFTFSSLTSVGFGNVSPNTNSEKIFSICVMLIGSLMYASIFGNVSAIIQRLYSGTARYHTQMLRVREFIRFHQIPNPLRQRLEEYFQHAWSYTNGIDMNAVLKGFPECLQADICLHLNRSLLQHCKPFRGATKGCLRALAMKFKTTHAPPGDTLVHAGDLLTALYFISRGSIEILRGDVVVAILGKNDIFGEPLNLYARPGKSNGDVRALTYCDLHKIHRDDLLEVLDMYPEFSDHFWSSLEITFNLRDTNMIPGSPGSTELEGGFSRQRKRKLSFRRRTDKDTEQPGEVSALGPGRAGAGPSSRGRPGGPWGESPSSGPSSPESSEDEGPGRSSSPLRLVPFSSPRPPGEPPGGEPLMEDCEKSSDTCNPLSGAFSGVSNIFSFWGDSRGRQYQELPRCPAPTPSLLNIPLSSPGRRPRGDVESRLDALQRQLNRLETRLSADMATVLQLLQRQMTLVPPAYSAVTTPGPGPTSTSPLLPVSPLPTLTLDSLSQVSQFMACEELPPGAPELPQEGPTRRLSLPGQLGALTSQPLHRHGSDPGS

[12] = target: T1, Mannose-6-phosphate isomerase; test: inhibitors of human PMI, primary screen, biochemical, fluorescence intensity, coupled assay (AID 1209)
[13] = CellTiter-Glo luminescent dose response of DLD-1 viability loss (AID 1117352); format: functional
[14] = RKO cell viability reduction, dose response, CellTiter-Glo luminescence (AID 1117322); format: functional
[15] = HeLa 4N DNA content increase, dose response, cell-based, IC50 (AID 1117351); format: functional
[16] = cytotoxicity toward HT-29 cells – cell-based, CellTiter-Glo luminescence, IC50, dose response (AID 1117330); format: functional
[17] = Concentration-dependent survival of SW480 colon cancer line, luminescence detection with CellTiter-Glo, half-maximal inhibitory concentration (AID 1117338); format: functional
[18] = SNU-C1 cell viability reduction, dose response, CellTiter-Glo luminescence (AID 1117323); format: functional, cell-based
[19] = HeLa 2N DNA content increase, dose response, cell-based, IC50 (AID 1117349); format: functional
[20] = cytotoxicity toward Colo320 cells – cell-based, CellTiter-Glo luminescence, IC50, dose response (AID 1117334); format: functional; settings: COLO 320
[21] = cytotoxicity toward HCT116 cells – cell-based, CellTiter-Glo luminescence, IC50, dose response (AID 1117332); format: functional; settings: HCT-116
[22] = human group III sPLA2 inhibitors, dose response, biochemical, QFRET, IC50 (AID 743457);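 further: green fluorescence rise as the enzyme cleaves BODIPY PC-A2 in liposomes; potency for inhibition of the enzyme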

For `Cc1ccc(CCNC(=O)C2CCCN(S(=O)(=O)c3c(C)noc3/C=C/N(C)C)C2)cc1` (stereo not given), the IC50 [1] was > 100 µM (active).

In the case of `O=C(/C=C/c1ccccc1)Nc1cccc(S(=O)(=O)Nc2ccccc2F)c1`, the IC50 [2] is reported as 31.9 µM (active) and the IC50 [3] is reported as 20 µM (active).

In the case of `Cc1ccc2oc(=O)c(/C=C(\O)c3ccco3)nc2c1`, the IC50 [4] is reported as 5.13 µM (active) and the EC50 [5] is reported as 4.74 µM (active).

In the case of `COc1cc(/C=N/NS(=O)(=O)c2ccc3ccccc3c2)ccc1OCc1ccc(C(=O)O)cc1`, the AC50 [6] is reported as 4.78 µM (active), the EC50 [7] is reported as 7.05 µM (active) and the EC50 [8] is reported as 10.5 µM (active). For the same compound, the IC50 [9] was 23.6 µM (active) and the EC50 [10] was 9.11 µM (inconclusive).

In the case of `Cc1cccc(N(O)C(=O)Nc2cccc(Cl)c2)c1`, the IC50 [4] is reported as 5.44 µM (active).

In the case of `O=C(NC(=S)Nc1nc2c(s1)CSc1ccccc1-2)c1ccccc1`, the EC50 [11] is reported as 5.11 µM (active), the IC50 [12] is reported as > 50 µM (not active) and the IC50 [3] is reported as > 50 µM (not active).

For `Cc1ccc2c(c1)c1c3n2CCNC3CCC1` (stereo not given), the IC50 [13] was > 20 µM (inactive), the IC50 [14] was > 20 µM (inactive) and the IC50 [15] was > 10 µM (inactive). The IC50 [16] was > 20 µM (inactive), the IC50 [17] was > 20 µM (inactive) and the IC50 [18] was 2.48 µM (active). For the same compound, the IC50 [19] was > 10 µM (inactive), the IC50 [20] was > 20 µM (inactive) and the IC50 [21] was > 20 µM (inactive). For the same compound, the IC50 [22] was > 122 µM (inactive).

In the case of `Cc1cc(C)cc(N2C(=O)CC(Sc3nnc[nH]3)C2=O)c1` (stereo not given), the IC50 [12] is reported as > 50 µM (not active).
